Experimental findings from patent publication US9139569B2, “Fused tricyclic aryl compounds useful for the treatment of viral diseases” (Merck Sharp & Dohme Corp., priority 2009, dated 2015) are described below.

In one assay the test system is HCV replicon genotype 1a. Description: Cell-based HCV replicon assay, genotype 1a. To be noted: Hepatitis C virus, 72 h, HCV replicon cells, replicon RNA by real time PCR on day 3, read-out: EC50 (nM) (gt1a). The method, then:
(§1) To measure cell-based anti-HCV activity of selected compounds of the present invention, replicon cells were seeded at 5000 cells/well in 96-well collagen I-coated Nunc plates in the presence of the test compound. Various concentrations of test compound, typically in 10 serial 2-fold dilutions, were added to the assay mixture, with the starting concentration ranging from 250 μM to 1 μM. The final concentration of DMSO was 0.5%, fetal bovine serum was 5%, in the assay media. Cells were harvested on day 3 by the addition of 1× cell lysis buffer (Ambion cat #8721). The replicon RNA level was measured using real time PCR (Taqman assay). The amplicon was located in 5B. The PCR primers were: 5B.2F, ATGGACAGGCGCCCTGA (SEQ. ID NO. 1); 5B.2R, […] (SEQ. ID NO. 2); the probe sequence was FAM-labeled CACGCCATGCGCTGCGG (SEQ. ID NO. 3). GAPDH RNA was used as endogenous control and was amplified in the same reaction as NS5B (multiplex PCR) using primers and VIC-labeled probe recommended by the manufacturer (PE Applied Biosystem). The real-time RT-PCR reactions were run on ABI PRISM 7900HT Sequence Detection System using the following program: 48° C. for 30 min, 95° C. for 10 min, 40 cycles of 95° C. for 15 sec, 60° C. for 1 min. The ACT values (CT5B-CTGAPDH) were plotted against the concentration of test compound and fitted to the sigmoid dose-response model using XLfit4 (MDL). EC50 was defined as the concentration of inhibitor necessary to achieve ΔCT=1 over the projected baseline; EC90 the concentration necessary to achieve ΔCT=3.2 over the baseline. Alternatively, to quantitate the absolute amount of replicon RNA, a standard curve was established by including serially diluted T7 transcripts of replicon RNA in the Taqman assay. All Taqman reagents were from PE Applied Biosystems. Such an assay procedure was described in detail in e.g. Malcolm et al., Antimicrobial Agents and Chemotherapy 50: 1013-1020 (2006).
(§2) HCV replicon assay data was calculated for genotypes 1a, 1b, 2a and 3a for selected compounds of the present invention using this method and is provided in the table below.

For a further assay, the system named is HCV replicon genotype 2a. Description: Cell-based HCV replicon assay, genotype 2a. To be noted: Hepatitis C virus, 72 h, HCV replicon cells, replicon RNA by real time PCR on day 3, read-out: EC50 (nM) (gt2a). How it is done:
as §1, §2

Another assay relates to HCV replicon genotype 3a. Description: Cell-based HCV replicon assay, genotype 3a. To be noted: Hepatitis C virus, 72 h, HCV replicon cells, replicon RNA by real time PCR on day 3, read-out: EC50 (nM) (gt3a). The method, then: To measure cell-based anti-HCV activity of selected compounds of the present invention, replicon cells were seeded at 5000 cells/well in 96-well collagen I-coated Nunc plates in the presence of the test compound. Various concentrations of test compound, typically in 10 serial 2-fold dilutions, were added to the assay mixture, with the starting concentration ranging from 250 μM to 1 μM. The final concentration of DMSO was 0.5%, fetal bovine serum was 5%, in the assay media. Cells were harvested on day 3 by the addition of 1× cell lysis buffer (Ambion cat #8721). The replicon RNA level was measured using real time PCR (Taqman assay). The amplicon was located in 5B. The PCR primers were: 5B.2F, ATGGACAGGCGCCCTGA (SEQ. ID NO. 1); 5B.2R, […] (SEQ. ID NO. 2); the probe sequence was FAM-labeled CACGCCATGCGCTGCGG (SEQ. ID NO. 3). GAPDH RNA was used as endogenous control and was amplified in the same reaction as NS5B (multiplex PCR) using primers and VIC-labeled probe recommended by the manufacturer (PE Applied Biosystem). […] Alternatively, to quantitate the absolute amount of replicon RNA, a standard curve was established by including serially diluted T7 transcripts of replicon RNA in the Taqman assay. […]
as §2

A further assay relates to HCV replicon genotype 1b. Description: Cell-based HCV replicon assay, genotype 1b. Particulars: Hepatitis C virus, 72 h, HCV replicon cells, replicon RNA by real time PCR on day 3, read-out: EC50 (nM) (gt1b). How it is done: as §1, §2

On to `COC(=O)N[C@H](C(=O)N1CCC[C@H]1c1ncc(-c2ccc3cc4cc(-c5cnc([C@@H]6CCCN6C(=O)[C@@H](NC(=O)OC)C(C)C)[nH]5)ccc4cc3c2)[nH]1)C(C)C` [Compound 36], for which the EC50 amounted to 0.001 nM with HCV replicon genotype 1a, 0.039 nM in the assay on HCV replicon genotype 2a and 0.01 nM with HCV replicon genotype 3a.
For `COC(=O)N[C@H](C(=O)N1CCC[C@H]1c1ncc(-c2ccc3nc4cc(-c5cnc([C@@H]6CCCN6C(=O)[C@@H](NC(=O)OC)C(C)C)[nH]5)ccc4cc3c2)[nH]1)C(C)C` [Compound 37], the EC50 was determined as 0.047 nM in the assay on HCV replicon genotype 1a, 0.001 nM with HCV replicon genotype 1b, 0.71 nM in the assay on HCV replicon genotype 2a and 0.04 nM with HCV replicon genotype 3a.
With `COC(=O)N[C@H](C(=O)N1CCC[C@H]1c1ncc(-c2ccc3nc4cc(-c5cnc([C@@H]6CCCN6C(=O)[C@@H](NC(=O)OC)C(C)C)[nH]5)ccc4nc3c2)[nH]1)C(C)C` [Compound 38], the results for the EC50 in the assay with HCV replicon genotype 1a and in the assay on HCV replicon genotype 1b were 0.035 nM and 0.015 nM, respectively.
For `COC(=O)N[C@H](C(=O)N1CCC[C@H]1c1ncc(-c2cc3cc4oc(-c5cnc([C@@H]6CCCN6C(=O)[C@@H](NC(=O)OC)C(C)C)[nH]5)cc4cc3o2)[nH]1)C(C)C` [Compound 39], the results for the concentration giving a half-maximal response (EC50) with HCV replicon genotype 1a, in the assay with HCV replicon genotype 1b and in the assay with HCV replicon genotype 2a were 0.02 nM, 0.001 nM and 0.05 nM, respectively.
